Data reported in ChEMBL document CHEMBL1201862, “PubChem BioAssay data set” (2004).
Activity calls are given as the source filed them.

Tests used:
Cytochrome P450 2C19 = Cytochrome P450 2C19 (Homo sapiens, UniProt P33261); experiment: qHTS Assay for Inhibitors and Substrates of Cytochrome P450 2C19. [Related pubchem assays: 410 ]; assay type: ADME; settings: read-out: Potency
[1] = Late stage counterscreen results from the probe development effort to identify activators of signal transducer and activator of transcription 1 (STAT1): luminescence-based cell-based dose response assay to identify cytotoxic compounds.; assay type: functional
Paired box protein Pax-8 = Paired box protein Pax-8 (Homo sapiens, UniProt Q06710); experiment: inhibitors of PAX8-driven TPO luciferase reporter, dose response, RMG-I cells, cherry-pick (AID 687027); assay type: functional, cell-based;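 further: luciferase reporter driven by Pax8 target thyroperoxidase promoter measured by SteadyGlo luminescence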
[2] = non-specific cell cytotoxicity, dose response, cytotoxicity control for PAX8 inhibitor project, plate reader, dry powder samples (AID 743021); assay type: functional, cell-based
Ephrin type-A receptor 4 = Ephrin type-A receptor 4 (Mus musculus, UniProt Q03137); experiment: inhibitors of EphA4 binding to KYL peptide, primary screen, biochemical, colorimetric, mouse EphA4 (AID 689); assay type: functional
Bcl-2-related protein A1 [3] = molecular target: T1, Bcl-2-related protein A1 (Mus musculus, UniProt Q07440); experiment: Bfl-1 inhibitors blocking BH3 peptide binding, confirmation, biochemical, TR-FRET, mouse Bfl-1 (AID 621);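 further: TR-FRET binding of GST-Bfl-1 to FITC-labelled Bid peptide via terbium antibody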
T1 sequence (Q07440 whole entry): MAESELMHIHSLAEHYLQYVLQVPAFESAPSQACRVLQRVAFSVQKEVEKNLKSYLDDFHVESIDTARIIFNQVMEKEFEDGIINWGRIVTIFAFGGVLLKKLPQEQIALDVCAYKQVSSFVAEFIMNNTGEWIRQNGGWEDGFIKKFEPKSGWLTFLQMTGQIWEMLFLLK

[4] = molecular target: G-protein coupled receptor 35 (Homo sapiens, UniProt Q9HC97); experiment: GPR35 antagonists blocking zaprinast-driven arrestin recruitment, primary screen, imaging, U2OS, beta-arrestin-GFP, zaprinast agonist (AID 2058); assay type: functional;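 further: antagonist potency meaning inhibition of agonist-induced arrestin redistribution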
[5] = molecular target: T2, RNA-binding protein pos-1 (Caenorhabditis elegans, UniProt G5EF15); experiment: inhibitors of POS-1/mex-3 RNA binding, dose response, biochemical, fluorescence polarization (AID 1964);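 further: purified POS-1 fused to maltose binding protein made in E. coli; potency of compounds blocking POS-1 binding to fluorescent RNA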
T2 sequence (G5EF15 whole entry): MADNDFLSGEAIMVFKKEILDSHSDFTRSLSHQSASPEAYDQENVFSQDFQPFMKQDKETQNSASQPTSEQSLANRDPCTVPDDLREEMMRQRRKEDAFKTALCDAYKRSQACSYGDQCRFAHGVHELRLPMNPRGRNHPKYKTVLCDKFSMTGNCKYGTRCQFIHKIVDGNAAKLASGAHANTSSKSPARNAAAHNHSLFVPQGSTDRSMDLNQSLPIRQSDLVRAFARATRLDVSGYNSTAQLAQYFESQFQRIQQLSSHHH

[6] = molecular target: T3, Heat shock factor protein 1 (Mus musculus, UniProt P38532); experiment: HSF1 potentiators in luciferase reporter cells, confirmation, cell-based, NIH3T3, luminescence, dose retest (AID 435004); assay type: functional;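 further: stress induced by proteasome inhibitor MG132 added 30 min after compound; luciferase reporter driven by HSF1 response element in NIH3T3 cells; actives raise luminescence as potentiators of the MG132 stress response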
T3 sequence (P38532 whole entry): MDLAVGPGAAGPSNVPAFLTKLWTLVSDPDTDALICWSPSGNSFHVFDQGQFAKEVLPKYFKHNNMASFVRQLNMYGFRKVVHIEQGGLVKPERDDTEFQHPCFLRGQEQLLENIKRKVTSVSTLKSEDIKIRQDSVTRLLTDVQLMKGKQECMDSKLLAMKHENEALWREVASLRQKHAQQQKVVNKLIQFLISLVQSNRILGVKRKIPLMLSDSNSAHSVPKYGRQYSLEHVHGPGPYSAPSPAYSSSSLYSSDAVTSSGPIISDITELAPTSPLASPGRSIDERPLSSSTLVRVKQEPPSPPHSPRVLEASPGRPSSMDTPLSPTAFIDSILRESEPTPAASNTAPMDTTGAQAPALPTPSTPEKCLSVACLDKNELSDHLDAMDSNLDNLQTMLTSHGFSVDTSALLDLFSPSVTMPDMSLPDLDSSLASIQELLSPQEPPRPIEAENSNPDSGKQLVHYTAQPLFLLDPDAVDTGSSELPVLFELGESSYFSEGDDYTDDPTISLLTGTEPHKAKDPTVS

Bcl-2-related protein A1 [7] = molecular target: T1, Bcl-2-related protein A1; experiment: Bfl-1 inhibitors, primary screen, biochemical, fluorescence polarization, FITC-Bid, mouse (AID 432)
[8] = molecular target: T4, Zinc finger protein mex-5 (Caenorhabditis elegans, UniProt Q9XUB2); experiment: MEX-5/TCR-2 RNA interaction inhibitors, dose response, biochemical, C. elegans, fluorescence polarization (AID 1960)
T4 sequence (Q9XUB2 whole entry): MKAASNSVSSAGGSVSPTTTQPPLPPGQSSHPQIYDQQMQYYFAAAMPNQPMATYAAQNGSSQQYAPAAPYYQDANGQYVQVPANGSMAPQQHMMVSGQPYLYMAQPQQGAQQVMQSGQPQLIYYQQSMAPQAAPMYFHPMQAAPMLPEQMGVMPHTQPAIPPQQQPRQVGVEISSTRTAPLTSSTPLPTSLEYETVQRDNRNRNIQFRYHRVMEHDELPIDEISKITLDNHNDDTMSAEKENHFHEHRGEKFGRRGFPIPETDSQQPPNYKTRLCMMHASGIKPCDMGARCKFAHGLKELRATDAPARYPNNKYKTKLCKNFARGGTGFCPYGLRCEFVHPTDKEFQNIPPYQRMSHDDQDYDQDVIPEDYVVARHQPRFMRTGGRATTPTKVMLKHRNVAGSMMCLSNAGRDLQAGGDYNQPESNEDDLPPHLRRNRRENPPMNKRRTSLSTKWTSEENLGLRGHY

[9] = molecular target: Photoreceptor-specific nuclear receptor (Homo sapiens, UniProt Q9Y5X4); experiment: NR2E3 inverse agonists, dose response, biochemical, TR-FRET (AID 463256); assay type: functional
[10] = molecular target: Peroxisome proliferator-activated receptor gamma/Nuclear receptor coactivator 3 (Homo sapiens, UniProt P37231); experiment: TR-FRET dose response biochemical High Throughput Screening assay for agonists of the steroid receptor coactivator 3 (SRC-3) recruitment by the peroxisome proliferator-activated receptor gamma (PPAR gamma): non-selective agonists. [Related pubchem assays: 1301 (Confirmation screen.), 1048 (Primary screen.)]; assay type: functional
[11] = molecular target: Peroxisome proliferator-activated receptor gamma/Nuclear receptor coactivator 2 (Homo sapiens, UniProt P37231); experiment: (§1) TR-FRET dose response biochemical High Throughput Screening assay for agonists of the steroid receptor coactivator 2 (SRC-2) recruitment by the peroxisome proliferator-activated receptor gamma (PPAR gamma): non-selective agonists. [Related pubchem assays: 1297, 1032 ]; assay type: functional
[12] = molecular target: Peroxisome proliferator-activated receptor gamma/Nuclear receptor coactivator 1 (Homo sapiens, UniProt P37231); experiment: as §1, with “1 (SRC-1)” for “2 (SRC-2)”, “assays (depositor defined):AID1300, AID1808, AID504735, AID631]” for “assays: 1297, 1032 ]”; assay type: protein assay
[13] = molecular target: Peroxisome proliferator-activated receptor gamma/Nuclear receptor corepressor 2 (Homo sapiens, UniProt P37231+Q9Y618); experiment: Counterscreen for NR2E3 inverse agonists: TR-FRET-based biochemical high throughput dose response assay to identify inverse agonists of the interaction between peroxisome proliferator-activated receptor gamma (PPARg) and nuclear receptor co-repressor 2 (NCOR2).; assay type: functional
Leucine aminopeptidase = molecular target: T5, Leucine aminopeptidase (Plasmodium falciparum 3D7, UniProt Q8IL11); experiment: P. falciparum M17LAP inhibitors, primary screen, biochemical, fluorogenic H-Leu-NHMec substrate, 1536-well (AID 1619); assay type: functional
T5 sequence (Q8IL11 whole entry): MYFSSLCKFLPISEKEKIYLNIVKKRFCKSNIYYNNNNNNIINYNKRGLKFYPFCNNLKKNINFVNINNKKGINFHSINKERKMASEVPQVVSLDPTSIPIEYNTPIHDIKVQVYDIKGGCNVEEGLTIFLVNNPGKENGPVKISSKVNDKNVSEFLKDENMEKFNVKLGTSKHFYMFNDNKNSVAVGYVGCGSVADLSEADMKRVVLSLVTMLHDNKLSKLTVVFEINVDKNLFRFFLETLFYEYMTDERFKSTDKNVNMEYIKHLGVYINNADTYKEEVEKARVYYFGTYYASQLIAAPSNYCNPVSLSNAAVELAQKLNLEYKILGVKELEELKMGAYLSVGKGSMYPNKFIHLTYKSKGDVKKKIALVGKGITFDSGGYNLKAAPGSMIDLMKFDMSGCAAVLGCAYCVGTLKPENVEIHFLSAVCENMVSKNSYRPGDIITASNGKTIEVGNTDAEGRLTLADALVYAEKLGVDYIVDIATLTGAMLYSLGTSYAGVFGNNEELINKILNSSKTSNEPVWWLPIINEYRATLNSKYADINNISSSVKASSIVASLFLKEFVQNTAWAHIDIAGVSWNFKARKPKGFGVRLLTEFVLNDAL

Large T antigen = Large T antigen (Simian virus 40, UniProt P03070); assay type: functional, Betapolyomavirus macacae;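 further: Confirmatory-stage PubChem screen for compounds that inhibit SV40 T antigen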
Heat shock protein HSP90 = Heat shock protein HSP90 (Homo sapiens, UniProt P07900+P08238); experiment: tumor Hsp90 inhibitor potency, dose response (AID 712); assay type: functional
[14] = molecular target: FAD-linked sulfhydryl oxidase ALR (Homo sapiens, UniProt P55789); experiment: inhibitors of human ALR sulfhydryl oxidase, dose response, biochemical, H2O2 detection, luminescence, cherry-pick (AID 493248)
[15] = molecular target: T6, Rac GTPase-activating protein 1 (Homo sapiens, UniProt Q9H0H5); experiment: MgcRacGAP GTPase-activating activity inhibitors, confirmation, biochemical, ADP Hunter fluorescence, primary and confirmatory (AID 624330); assay type: functional
T6 sequence (Q9H0H5 whole entry): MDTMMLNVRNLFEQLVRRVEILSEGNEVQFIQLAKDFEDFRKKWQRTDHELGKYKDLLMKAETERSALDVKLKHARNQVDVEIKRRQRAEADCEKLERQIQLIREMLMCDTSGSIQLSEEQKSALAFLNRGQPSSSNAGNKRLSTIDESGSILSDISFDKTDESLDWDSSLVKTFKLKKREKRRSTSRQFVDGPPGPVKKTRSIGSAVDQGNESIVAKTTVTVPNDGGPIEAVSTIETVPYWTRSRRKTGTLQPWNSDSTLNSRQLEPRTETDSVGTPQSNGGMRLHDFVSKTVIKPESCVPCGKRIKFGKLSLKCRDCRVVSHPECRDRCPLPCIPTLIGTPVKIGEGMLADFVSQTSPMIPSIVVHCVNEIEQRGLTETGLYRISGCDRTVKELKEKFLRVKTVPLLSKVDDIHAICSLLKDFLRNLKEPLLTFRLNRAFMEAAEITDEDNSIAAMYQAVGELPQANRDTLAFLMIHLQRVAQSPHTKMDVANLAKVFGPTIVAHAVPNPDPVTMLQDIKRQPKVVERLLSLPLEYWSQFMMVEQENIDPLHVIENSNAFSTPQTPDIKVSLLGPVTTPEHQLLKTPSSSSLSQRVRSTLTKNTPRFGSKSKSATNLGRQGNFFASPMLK

[16] = Luminescent dose response cell-based high throughput screening assay for inhibitors of the Janus kinase 2 mutant JAK2V617F. [Related pubchem assays: 1446 (Primary screen.), 1521 (Confirmation assay.), 1486 (Counter screen.)]; assay type: functional
[17] = inhibitors of firefly luciferase expression or activity, dose response, H4 neuroglioma cells, luminescence (AID 1990); assay type: functional, cell-based
[18] = Luminescence Cell-Based Dose Response HTS to Identify Inhibitors of 5'UTR Stem-Loop Driven Prion Protein mRNA Translation in H4 Neuroglioblastoma Cells. [Related pubchem assays: 1827 (Project Summary), 1813 (Primary HTS)]; assay type: functional
Danio rerio = experiment: In Vivo Angiogenesis Dose-Response Confirmation. [Related pubchem assays: 732 (Assay preceding this confirmatory assay.)]; assay type: functional, organism-based
Cytochrome P450 3A4 = Cytochrome P450 3A4 (Homo sapiens, UniProt P08684);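 further: CYP3A4 tested as one member of a cytochrome P450 panel screen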
Chain of Cytochrome P450 3A4 (P08684 whole entry): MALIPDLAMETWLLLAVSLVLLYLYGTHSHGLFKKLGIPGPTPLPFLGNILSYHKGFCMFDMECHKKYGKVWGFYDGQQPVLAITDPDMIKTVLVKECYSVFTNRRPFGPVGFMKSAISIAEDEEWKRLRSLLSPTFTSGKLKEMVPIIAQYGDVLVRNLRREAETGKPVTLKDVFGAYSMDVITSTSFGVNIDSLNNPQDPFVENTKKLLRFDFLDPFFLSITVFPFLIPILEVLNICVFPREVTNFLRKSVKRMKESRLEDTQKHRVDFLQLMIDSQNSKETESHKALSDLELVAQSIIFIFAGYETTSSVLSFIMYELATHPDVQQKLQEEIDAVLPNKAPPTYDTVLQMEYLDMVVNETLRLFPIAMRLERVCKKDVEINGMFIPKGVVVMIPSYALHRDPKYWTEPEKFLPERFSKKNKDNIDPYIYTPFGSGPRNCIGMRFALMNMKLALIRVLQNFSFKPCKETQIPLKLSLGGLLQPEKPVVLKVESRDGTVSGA

Chain of Paired box protein Pax-8 (Q06710 whole entry): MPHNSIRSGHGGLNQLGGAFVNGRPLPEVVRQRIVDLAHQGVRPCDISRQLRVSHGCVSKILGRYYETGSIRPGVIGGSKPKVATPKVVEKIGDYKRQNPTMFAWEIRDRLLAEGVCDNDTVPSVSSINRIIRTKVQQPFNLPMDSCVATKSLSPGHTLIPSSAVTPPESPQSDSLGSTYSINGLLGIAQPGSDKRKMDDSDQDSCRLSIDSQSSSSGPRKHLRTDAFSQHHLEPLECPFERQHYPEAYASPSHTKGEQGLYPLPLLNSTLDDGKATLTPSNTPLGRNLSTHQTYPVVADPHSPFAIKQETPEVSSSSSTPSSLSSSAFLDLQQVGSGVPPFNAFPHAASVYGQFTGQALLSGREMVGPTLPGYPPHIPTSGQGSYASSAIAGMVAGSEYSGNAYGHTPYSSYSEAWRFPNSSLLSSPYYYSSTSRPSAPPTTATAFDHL
Chain of FAD-linked sulfhydryl oxidase ALR (P55789 whole entry): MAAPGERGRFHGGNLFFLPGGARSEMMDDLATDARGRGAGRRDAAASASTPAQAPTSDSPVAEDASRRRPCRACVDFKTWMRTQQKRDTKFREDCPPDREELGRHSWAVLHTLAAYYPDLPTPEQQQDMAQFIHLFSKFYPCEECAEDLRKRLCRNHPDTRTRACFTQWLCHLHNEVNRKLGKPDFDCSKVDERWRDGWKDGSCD
Chain of G-protein coupled receptor 35 (Q9HC97 whole entry, the tested form may be a part): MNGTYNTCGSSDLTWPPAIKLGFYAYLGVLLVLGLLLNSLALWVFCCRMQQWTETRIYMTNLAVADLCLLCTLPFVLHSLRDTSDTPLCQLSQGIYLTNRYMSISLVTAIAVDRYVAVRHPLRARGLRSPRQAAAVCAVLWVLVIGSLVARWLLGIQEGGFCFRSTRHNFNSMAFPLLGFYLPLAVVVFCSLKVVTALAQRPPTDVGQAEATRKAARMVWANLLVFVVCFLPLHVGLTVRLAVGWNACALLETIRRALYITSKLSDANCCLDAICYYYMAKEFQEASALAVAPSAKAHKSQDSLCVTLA
Chain of Large T antigen (P03070 whole entry): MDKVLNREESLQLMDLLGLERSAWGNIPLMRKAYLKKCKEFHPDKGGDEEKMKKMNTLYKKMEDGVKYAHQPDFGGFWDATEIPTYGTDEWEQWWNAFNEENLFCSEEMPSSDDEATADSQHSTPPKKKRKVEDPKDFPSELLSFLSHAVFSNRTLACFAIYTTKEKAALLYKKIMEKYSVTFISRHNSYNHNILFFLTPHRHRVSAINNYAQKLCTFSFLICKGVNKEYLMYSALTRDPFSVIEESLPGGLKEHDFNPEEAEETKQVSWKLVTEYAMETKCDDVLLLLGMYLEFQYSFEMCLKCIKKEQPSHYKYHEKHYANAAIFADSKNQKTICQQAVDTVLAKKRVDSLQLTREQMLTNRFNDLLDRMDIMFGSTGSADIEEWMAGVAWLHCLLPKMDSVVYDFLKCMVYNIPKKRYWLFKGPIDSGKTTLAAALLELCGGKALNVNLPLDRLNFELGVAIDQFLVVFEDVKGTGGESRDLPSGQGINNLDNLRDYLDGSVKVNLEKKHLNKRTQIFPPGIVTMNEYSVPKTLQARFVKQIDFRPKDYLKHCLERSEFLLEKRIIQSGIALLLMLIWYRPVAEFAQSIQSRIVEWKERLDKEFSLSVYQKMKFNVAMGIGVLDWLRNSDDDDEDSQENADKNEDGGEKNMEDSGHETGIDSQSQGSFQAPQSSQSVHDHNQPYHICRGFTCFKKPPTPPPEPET
Chain of Peroxisome proliferator-activated receptor gamma/Nuclear receptor coactivator 3 (P37231 whole entry): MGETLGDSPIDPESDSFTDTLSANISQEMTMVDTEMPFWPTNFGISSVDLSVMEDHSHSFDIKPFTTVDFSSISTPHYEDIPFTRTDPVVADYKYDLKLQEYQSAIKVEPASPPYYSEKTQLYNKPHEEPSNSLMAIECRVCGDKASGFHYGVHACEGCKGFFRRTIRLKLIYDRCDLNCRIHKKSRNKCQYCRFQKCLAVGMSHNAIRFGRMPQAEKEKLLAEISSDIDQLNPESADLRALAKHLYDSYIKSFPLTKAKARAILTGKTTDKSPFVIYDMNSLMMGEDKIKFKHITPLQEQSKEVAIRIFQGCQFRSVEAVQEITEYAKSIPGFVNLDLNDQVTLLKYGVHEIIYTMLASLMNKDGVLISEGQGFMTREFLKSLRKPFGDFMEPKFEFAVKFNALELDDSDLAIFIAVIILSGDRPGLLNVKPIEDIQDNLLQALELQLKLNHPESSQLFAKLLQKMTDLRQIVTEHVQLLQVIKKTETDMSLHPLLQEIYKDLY
Chain of Peroxisome proliferator-activated receptor gamma/Nuclear receptor coactivator 3 (Q9Y6Q9 whole entry, further chain): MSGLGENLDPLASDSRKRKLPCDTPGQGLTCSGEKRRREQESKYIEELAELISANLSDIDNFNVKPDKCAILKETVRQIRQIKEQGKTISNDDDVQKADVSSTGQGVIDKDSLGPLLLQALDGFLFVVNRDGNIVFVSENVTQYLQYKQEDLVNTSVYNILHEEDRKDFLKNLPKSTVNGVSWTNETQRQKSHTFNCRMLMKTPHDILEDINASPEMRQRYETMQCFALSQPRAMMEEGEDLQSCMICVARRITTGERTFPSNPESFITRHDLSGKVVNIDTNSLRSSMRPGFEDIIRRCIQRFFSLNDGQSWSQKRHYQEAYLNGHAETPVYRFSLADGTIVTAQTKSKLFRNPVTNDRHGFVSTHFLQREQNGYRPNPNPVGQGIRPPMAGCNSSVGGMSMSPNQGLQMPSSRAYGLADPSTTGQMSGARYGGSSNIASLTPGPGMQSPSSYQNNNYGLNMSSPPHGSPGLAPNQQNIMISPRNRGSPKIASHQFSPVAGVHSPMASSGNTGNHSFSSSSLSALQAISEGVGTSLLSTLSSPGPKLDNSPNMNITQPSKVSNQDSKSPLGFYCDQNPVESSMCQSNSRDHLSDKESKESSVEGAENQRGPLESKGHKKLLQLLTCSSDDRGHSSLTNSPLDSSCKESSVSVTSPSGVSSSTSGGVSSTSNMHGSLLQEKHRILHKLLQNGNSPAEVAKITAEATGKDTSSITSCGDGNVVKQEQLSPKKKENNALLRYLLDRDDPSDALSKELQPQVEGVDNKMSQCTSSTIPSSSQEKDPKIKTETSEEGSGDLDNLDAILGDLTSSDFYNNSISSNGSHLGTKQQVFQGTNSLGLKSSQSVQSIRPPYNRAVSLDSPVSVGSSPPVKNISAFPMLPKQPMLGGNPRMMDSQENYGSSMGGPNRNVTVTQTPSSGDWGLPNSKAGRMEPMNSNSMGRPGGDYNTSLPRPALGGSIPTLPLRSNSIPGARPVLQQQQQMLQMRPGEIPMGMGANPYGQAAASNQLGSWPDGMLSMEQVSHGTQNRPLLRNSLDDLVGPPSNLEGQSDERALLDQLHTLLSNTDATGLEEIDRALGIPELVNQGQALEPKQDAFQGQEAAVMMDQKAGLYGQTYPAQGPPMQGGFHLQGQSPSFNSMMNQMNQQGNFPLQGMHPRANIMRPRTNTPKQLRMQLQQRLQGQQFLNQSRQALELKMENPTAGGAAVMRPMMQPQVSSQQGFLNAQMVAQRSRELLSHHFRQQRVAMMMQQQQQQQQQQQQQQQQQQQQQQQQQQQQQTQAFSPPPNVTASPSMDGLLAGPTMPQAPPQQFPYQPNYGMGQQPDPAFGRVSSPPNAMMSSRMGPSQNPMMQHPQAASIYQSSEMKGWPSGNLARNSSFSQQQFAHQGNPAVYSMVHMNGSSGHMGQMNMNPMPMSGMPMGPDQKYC
Chain of Photoreceptor-specific nuclear receptor (Q9Y5X4 whole entry): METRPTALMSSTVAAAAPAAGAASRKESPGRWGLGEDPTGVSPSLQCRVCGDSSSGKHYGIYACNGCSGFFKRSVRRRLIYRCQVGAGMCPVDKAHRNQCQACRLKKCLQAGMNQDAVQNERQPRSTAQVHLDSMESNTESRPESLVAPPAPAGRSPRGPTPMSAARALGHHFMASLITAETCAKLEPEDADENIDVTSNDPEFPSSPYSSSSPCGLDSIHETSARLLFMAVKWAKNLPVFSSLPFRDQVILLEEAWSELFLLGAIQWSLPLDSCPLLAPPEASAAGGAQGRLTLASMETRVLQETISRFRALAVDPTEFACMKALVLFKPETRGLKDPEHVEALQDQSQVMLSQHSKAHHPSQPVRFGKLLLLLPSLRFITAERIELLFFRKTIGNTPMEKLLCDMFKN
Chain of Cytochrome P450 2C19 (P33261 whole entry): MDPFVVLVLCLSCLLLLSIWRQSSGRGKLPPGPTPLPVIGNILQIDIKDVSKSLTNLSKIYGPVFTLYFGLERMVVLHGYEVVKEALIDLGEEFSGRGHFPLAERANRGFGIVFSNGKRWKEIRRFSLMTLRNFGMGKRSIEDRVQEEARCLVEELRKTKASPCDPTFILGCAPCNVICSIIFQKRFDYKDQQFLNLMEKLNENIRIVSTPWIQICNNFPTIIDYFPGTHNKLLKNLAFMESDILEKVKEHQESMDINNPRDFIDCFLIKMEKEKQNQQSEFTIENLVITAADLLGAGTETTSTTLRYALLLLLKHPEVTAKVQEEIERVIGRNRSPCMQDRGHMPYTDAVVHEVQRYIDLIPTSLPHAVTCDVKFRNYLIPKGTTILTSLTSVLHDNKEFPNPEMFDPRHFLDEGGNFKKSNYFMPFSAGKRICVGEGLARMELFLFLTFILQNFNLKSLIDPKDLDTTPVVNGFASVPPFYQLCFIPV

For `COc1cc2oc(-c3ccccc3)cc(=O)c2cc1OC`, the AC50 (Cytochrome P450 2C19) was 31.6 µM (inconclusive).
With `Cc1ccc(C(=O)Nc2nc3ccccc3s2)s1` the IC50 [1] was > 55.7 µM (not active).
For `FC(F)(F)c1nnc2c(Sc3ccccn3)nc3ccccc3n12`, the AC50 (Paired box protein Pax-8) was 7.08 µM (active), the AC50 [2] was 55.5 µM (active) and the IC50 (Ephrin type-A receptor 4) was > 100 µM (not active).
In the case of `CN1CC=C2C(C#N)=C(N)C(C#N)(C#N)C(c3cccc(Cl)c3Cl)C2C1` (stereo unspecified), the IC50 (Bcl-2-related protein A1 [3]) is reported as > 100 µM (not active), the IC50 [4] is reported as 12 µM (inactive) and the EC50 [5] is reported as 14.4 µM (active). For the same compound, the EC50 [6] was > 260 µM (inactive), the IC50 (Bcl-2-related protein A1 [7]) was > 100 µM (not active) and the EC50 [8] was 13.5 µM (active).
For `Cc1ccc(S(=O)(=O)Nc2cnn(-c3ccccc3)c(=O)c2Cl)cc1`, the IC50 [9] was > 39.8 µM (not active), the EC50 [10] was > 79.4 µM (not active) and the EC50 [11] was 19.2 µM (not active). The EC50 [12] was > 79.4 µM (inactive) and the IC50 [13] was > 39.8 µM (not active).
In the case of `CCCc1nc2ccccc2c(=O)n1/N=C/c1ccc(O)c(O)c1`, the IC50 (Leucine aminopeptidase) is reported as 24.2 µM (active), the IC50 (Large T antigen) is reported as 10.5 µM (active) and the IC50 (Heat shock protein HSP90) is reported as 17.5816 µM. The AC50 [14] was 0.577 µM (active), the IC50 [15] was 38.8 µM (active) and the IC50 [16] was 2.18 µM (active).
In the case of `NC(=O)c1cc(N2CC2)c([N+](=O)[O-])cc1[N+](=O)[O-]` [TRETAZICAR], the EC50 [17] is reported as > 120 µM (not active), the EC50 [18] is reported as > 120 µM (not active) and the IC50 (Danio rerio) is reported as 1.2 µM (not active). The AC50 (Cytochrome P450 3A4) was 39.8 µM (inconclusive).
